Experimental data as given in ChEMBL document CHEMBL3608307, “(±)-Acortatarinowins A-F, Norlignan, Neolignan, and Lignan Enantiomers from Acorus tatarinowii” (J Nat Prod, 2015).

Test system: RAW264.7
Assay: Inhibition of LPS-induced nitric oxide production in mouse RAW264.7 cells after 24 hrs by Griess assay
Format: functional, cell-based
Details: RAW264.7, 24 h

SMILES | IC50 [µM]
COc1cc(OC)c([C@@H]2[C@H](C)[C@H](c3cc(OC)c(OC)cc3OC)O[C@H]2C)cc1OC | > 50
COc1ccc([C@H]2OC[C@H]3[C@@H]2CO[C@@H]3c2ccc(OC)c(OC)c2)cc1OC [(+)-EUDESMIN] | > 50
COc1cc(OC)cc([C@H]2OC[C@H]3[C@@H]2CO[C@@H]3c2cc(OC)c(OC)c(OC)c2)c1 | > 50
COc1ccc([C@@H]2OC[C@@H]3[C@H]2CO[C@H]3c2ccc(OC)c(OC)c2)cc1OC [EUDESMINE] | > 50
COc1cc([C@H]2O[C@H](c3ccc(O)c(OC)c3)[C@@H](C)[C@@H]2C)ccc1O | 38
COc1cc(OC)c([C@H]2[C@@H](C)[C@@H](c3cc(OC)c(OC)cc3OC)O[C@@H]2C)cc1OC | > 50

Continued by falling IC50, values first:

IC50 [µM] | SMILES
37.8 | COc1cc([C@@H]2O[C@@H](c3ccc(O)c(OC)c3)[C@H](C)[C@H]2C)ccc1O
29.5 | COC(=O)c1ccc(O[C@@H](C)[C@@H](O)c2cc(OC)c(OC)c(OC)c2)c(OC)c1
26.6 | COc1cc(OC)cc([C@@H]2OC[C@@H]3[C@H]2CO[C@H]3c2cc(OC)c(OC)c(OC)c2)c1
23.3 | COC(=O)c1ccc(O[C@@H](C)[C@@H](O)c2ccc(OC)c(OC)c2)c(OC)c1 (relative stereo)
0.8 | C[C@@H]1C[C@H]2[C@@H]3CCC4=CC(=O)C=C[C@]4(C)[C@@]3(F)[C@@H](O)C[C@]2(C)[C@@]1(O)C(=O)CO [DEXAMETHASONE]
